Measurements taken from patent US10913746B2, “Substituted 4-phenylpiperidines, their preparation and use” (The Trustees of Columbia University in the City of New York, priority 2014, dated 2021).
Structures can show the parent of a compound that is named as a salt.

Assays:
serum RBP4 = serum RBP4 (Mus musculus (Mouse), UniProt Q00724); experiment: Serum RBP4 levels in Abca4−/− mice; type: in vivo; details: Example 112, present tense; 25 mg/kg for 12 weeks, mice starting at 17 weeks old
Description: (§1) Abca4−/− mice have A2E levels in the ˜15-19 pmoles/eye range at 17 weeks old. Mice, starting at 17 weeks old, were treated with 25 mg/kg of Compound 81 for 12 weeks.

Abca4−/− mouse model = experiment: Bisretinoid accumulation in Abca4−/− mouse model; type: in vivo; details: Example 112, present tense; 25 mg/kg for 12 weeks, mice starting at 17 weeks old
Description: as §1

[1] = system: subject afflicted with AMD or Stargardt disease; experiment: Administration to the eye of a subject afflicted with AMD or Stargardt disease; type: in vivo; details: Example 113, present tense; administered to the eye
Description: An amount of a compound 81 is administered to the eye of a subject afflicted with AMD.
An amount of a compound 81 is administered to the eye of a subject afflicted with Stargardt disease.

RBP4 = RBP4 (Homo sapiens (Human), UniProt P02753); details: cited from earlier work

| serum RBP4 reduction (serum RBP4) | Structure (SMILES) | bisretinoid accumulation in Abca4−/− mouse model (Abca4−/− mouse model) | treatment of subject afflicted with AMD [1] | treatment of subject afflicted with Stargardt disease [1] | binding to RBP4, displacement of all-trans retinol (RBP4) |
| --- | --- | --- | --- | --- | --- |
| significant serum RBP4 reduction | O=C(c1n[nH]c2c1CCNC2)N1CCC(c2cccc(F)c2C(F)(F)F)CC1 [Compound 30, (4-(3-Fluoro-2-(trifluoromethyl)phenyl)piperidin-1-yl)(4,5,6,7-tetrahydro-1H-pyrazolo[3,4-c]pyridin-3-yl)methanone Hydrochloride] | inhibit bisretinoid accumulation | – | – | – |
| significant serum RBP4 reduction | O=C(c1n[nH]c2c1CCNC2)N1CCC(c2ccc(F)c(F)c2C(F)(F)F)CC1 [Compound 34] | inhibit bisretinoid accumulation | – | – | – |
| significant serum RBP4 reduction | O=C(c1n[nH]c2c1CNCC2)N1CCC(c2ccc(F)c(F)c2C(F)(F)F)CC1 [Compound 36, (4-(3,4-Difluoro-2-(trifluoromethyl)phenyl)piperidin-1-yl)(4,5,6,7-tetrahydro-1H-pyrazolo[4,3-c]pyridin-3-yl)methanone Trifluoroacetic Acid Salt] | inhibit bisretinoid accumulation | – | – | – |
| significant serum RBP4 reduction | O=C(c1n[nH]c2c1CNC2)N1CCC(c2ccc(F)c(F)c2C(F)(F)F)CC1 [Compound 38, (4-(3,4-Difluoro-2-(trifluoromethyl)phenyl)piperidin-1-yl)(1,4,5,6-tetrahydropyrrolo[3,4-c]pyrazol-3-yl)methanone Hydrochloride] | inhibit bisretinoid accumulation | – | – | – |
| significant serum RBP4 reduction | O=C(c1n[nH]c2c1CCNC2)N1CCC(c2cccc(F)c2Cl)CC1 [Compound 40, (4-(2-Chloro-3-fluorophenyl)piperidin-1-yl)(4,5,6,7-tetrahydro-1Hpyrazolo[3,4-c]pyridin-3-yl)methanone Hydrochloride] | inhibit bisretinoid accumulation | – | – | – |
| significant serum RBP4 reduction | O=C(c1n[nH]c2c1CNCC2)N1CCC(c2cccc(F)c2Cl)CC1 [Compound 42, (4-(2-Chloro-3-fluorophenyl)piperidin-1-yl)(4,5,6,7-tetrahydro-1Hpyrazolo[4,3-c]pyridin-3-yl)methanone Hydrochloride] | inhibit bisretinoid accumulation | – | – | – |
| – | CC(=O)N1CCc2c(C(=O)N3CCC(c4ccc(F)c(F)c4C(F)(F)F)CC3)n[nH]c2C1 [Compound 81, 1-(3-(4-(3,4-Difluoro-2-(trifluoromethyl)phenyl)piperidine-1-carbonyl)-4,5-dihydro-1H-pyrazolo[3,4-c]pyridin-6(7H)-yl)ethanone] | – | effective to treat the subject | effective to treat the subject | – |
| – | CC1=C(/C=C/C(C)=C/C=C/C(C)=C/C(=O)Nc2ccc(O)cc2)C(C)(C)CCC1 [fenretinide, N-(4-hydroxy-phenyl)retinamide] | – | – | – | bind to RBP4 |
